Assay results from US10130830B2, “Preservative systems comprising cationic surfactants” (Laboratorios Miret, S.A., priority 2005, dated 2018).
Values joined by “and” are separate entries in the source; they are usually repeats but may differ in a detail not shown here. Equal values may be shown once.

Assays:
aerobic total count [1] = assay: Preservative action in soaked chickpeas, aerobic total count; type: cell-based; details: Example 13, soaked chickpeas, LAE 0.2 g/kg in soaking water, mean of triplicate
Protocol: (§1) (4) Determination of Preservative Action in Soaked Chick-peas.
(§2) Chickpeas are the principal ingredients in a lot of ready-to-eat meals. Before cooking them, chickpeas have to be soaked in water at room temperature for 24 hours. During this period, fermentation processes may occur and therefore, chickpeas would not be suitable for eating. The soaking process cannot be made at refrigeration temperatures, because the structure of the chickpeas could be damaged.
(§3) • 1. Chickpeas were soaked in water for 24 hours at 30° C. and 50% HR (in treated samples preservative was added at this point); and • 2. after 24 hours the chickpeas were strained. Analysis • Samples were analysed (aerobic total count and concentration of the cationic surfactant) by triplicate for 24 hours. • Aerobic total count was analysed by stomaching 25 g of chickpeas in 225 g of buffered peptone water. Dilutions were made in buffered peptone water. Tryptone Soya Agar was harvested with each dilution and incubated at 35° C. for 48 hours. • Average values in log cfu/g of three samples per treatment and day of analysis were calculated. • LAE was analysed by HPLC using an internally validated method.

[2] = Concentration of LAE in soaked chickpeas (HPLC); type: physicochemical; details: Example 13, soaked chickpeas; for Concentration of LAE (HPLC method) expressed as % of initial dose, mean / Concentration of LAE (HPLC method) expressed as % of initial dose: LAE 0.2 g/kg in soaking water; for Concentration of LAE (HPLC method) expressed as % of initial dose, mean: mean of triplicate; for Concentration of LAE (HPLC method) expressed as % of initial dose: samples 1-3, monohydrochloride
Protocol: as §1, §2, §3

Yeast = assay: Preservative action in cosmetic products (Antimicrobial Effectiveness Testing USP 24th Edition), yeast; type: cell-based, Candida albicans
From the text: (1) Determination of Preservative Action in Cosmetic Products. […] This assay consists of the contamination of the protecting formulations with an inoculum mixture of 10^8 cfu/ml concentration, for each of the micro-organisms, and the determination of the number of viable cells in time. This inoculum mixture is composed of the following microorganisms: [table] The cosmetic composition to be analysed is divided into sterile containers with 50 g of product for each flask. Each container is inoculated with 0.5 ml of inoculum (10^8 cfu/ml). The target concentration is 10^6 cfu/ml, approximately. All the containers are kept at a temperature between 20-25° C. and are protected from light. The level of the microbial contamination is checked at 0 hours, 7 days, 14 days and 28 days. The number of colonies is evaluated by dilution in buffer peptone with the appropriate neutraliser agent of the preservative. The culture media used for counting the microorganisms are: […] (2) Determination of Preservative Action in Chicken Breast. Process of Preparation • 1. Fresh chicken breast was diced to pieces • 2. Brine (8.70% sodium chloride and 4.35% tripolyphosphate in water) was added to the fresh chicken in an amount of 11.5 g brine per 88.5 g meat in the control preparation and 11.5 g brine and 88.4 g meat in the preparations treated with preservative. • 3. Brine and meat were mixed during 15 minutes, in the preparations treated with preservative the preservative was added after 14 minutes in an amount of 0.2 g/kg. • 4. Vacuum refrigerate tumbling was made during 30 minutes. • 5. Samples were vacuum-packed in sterile bags and they were cooked at 85° C. for 30 minutes. • 6. The cooked chicken was refrigerated at 4° C. • 7. The cooked chicken was diced in irregular shapes. • 8. Then, the nuggets were stored at 10° C. in sterile vacuum-packed bags. Analysis

aerobic total count [3] = assay: Preservative action in bratwurst sausage, aerobic total count; type: cell-based; details: Example 11, bratwurst sausage, LAE 0.2 g/kg
Protocol: (3) Determination of Preservative Action in Bratwurst Sausage.
The ingredients for all samples were : minced pork back, underbelly, spices, salt and additives (milk protein, diphosphate, antioxidant (E-300) and flavour enhance (E-621)).
1. On the cutter the minced pork back meat was ground and the ingredients were added in this order: the additives (except the preservative system), the underbelly, the spices and the preservative system (such as the cationic surfactant alone or in combination with other products). Ice was also added for controlling the temperature (maximum 5° C.) of the meat. The mixing time was 12 minutes.
2. The mass was vacuum mixed (92%) for 1 minute.
3. The mixture was stuffed into natural casings. The casings were previously soaked in a salted water solution for 30 minutes.
4. The bratwurst sausages were put in a cooking trolley. Cooking took place in a oven at 80° C. for 1 hour.
5. After cooking, the bratwurst sausages were sprayed with cool water for 5 minutes and put in a cold-storage room (0-5° C., 24 hours).
6. The next day, bratwurst sausages were packed (each packed contained five sausages) and pasteurised at 80° C. for 30 minutes and then. After, they were soaked in cool water for 30 minutes.
7. Finally, the bratwurst sausages were labelled and stored at 5° C. for 90 days.
Samples were analysed (aerobic total count) for up to 90 days. Aerobic total count was analysed by stomaching 25 g of sausage in 225 g of buffered peptone water. Dilutions were made in buffered peptone water. Tryptone Soya Agar was harvested with each dilution and incubated at 35° C. for 48 hours.
Average values in log cfu/g of three samples per treatment and day of analysis were calculated.

## CCCCCCCCCCCC(=O)N[C@@H](CCCN=C(N)N)C(=O)OCC.Cl [LAE, ethyl ester of the lauramide of the arginine monohydrochloride]
Aerobic total count [1]; 0 hours
  aerobic total count, mean: 2.0 log cfu/g
Aerobic total count [1]; 4 hours
  aerobic total count, mean: 2.0 log cfu/g
Aerobic total count [1]; 8 hours
  aerobic total count, mean: 2.5 log cfu/g
Aerobic total count [1]; 16 hours
  aerobic total count, mean: 3.8 log cfu/g
[2]; 0 hours
  Concentration of LAE (HPLC method) expressed as % of initial dose, mean: 100 % of initial dose
  Concentration of LAE (HPLC method) expressed as % of initial dose: 100 % of initial dose and 101 % of initial dose
[2]; 4 hours
  Concentration of LAE (HPLC method) expressed as % of initial dose, mean: 100 % of initial dose
  Concentration of LAE (HPLC method) expressed as % of initial dose: 101 % of initial dose and 99 % of initial dose and 100 % of initial dose
[2]; 8 hours
  Concentration of LAE (HPLC method) expressed as % of initial dose, mean: 98 % of initial dose
  Concentration of LAE (HPLC method) expressed as % of initial dose: 97 % of initial dose and 98 % of initial dose and 99 % of initial dose
[2]; 16 hours
  Concentration of LAE (HPLC method) expressed as % of initial dose, mean: 95 % of initial dose
  Concentration of LAE (HPLC method) expressed as % of initial dose: 95 % of initial dose and 96 % of initial dose
[2]; 24 hours
  Concentration of LAE (HPLC method) expressed as % of initial dose, mean: 93 % of initial dose
  Concentration of LAE (HPLC method) expressed as % of initial dose: 93 % of initial dose and 92 % of initial dose and 94 % of initial dose
[2]; after 24 hours
  hydrolysis of LAE: ~10 % of the original dose
Yeast; Example 10, oil in water emulsion with non-ionic surfactant, 0.2 g/kg, 0 days
  Yeast count: 5.6 log cfu/g
Yeast; Example 10, oil in water emulsion with non-ionic surfactant, 0.2 g/kg, 7 days
  Yeast count: 3.4 log cfu/g
Yeast; Example 10, oil in water emulsion with non-ionic surfactant, 0.2 g/kg, 14 days
  Yeast count: 2.6 log cfu/g
Yeast; Example 12, bath gel, LAE 0.2 g/kg, 0 days
  Yeast count: 4.3 log cfu/g
Yeast; Example 12, bath gel, LAE 0.2 g/kg, 7 days
  Yeast count: 2.8 log cfu/g
Yeast; Example 12, bath gel, LAE 0.2 g/kg, 14 days
  Yeast count: <2.0 log cfu/g
Yeast; Example 15, bath gel, LAE 0.2 g/kg, 0 days
  Yeast count: 4.3 log cfu/g
Yeast; Example 15, bath gel, LAE 0.2 g/kg, 7 days
  Yeast count: 3.3 log cfu/g
Yeast; Example 15, bath gel, LAE 0.2 g/kg, 14 days
  Yeast count: 2.6 log cfu/g
Yeast; Example 17, oil in water emulsion with an ionic emulsifier, 0.20 g of LAE/kg, 0 days
  Yeast count: 5.3 log cfu/g
Yeast; Example 17, oil in water emulsion with an ionic emulsifier, 0.20 g of LAE/kg, 7 days
  Yeast count: 3.8 log cfu/g
Yeast; Example 17, oil in water emulsion with an ionic emulsifier, 0.20 g of LAE/kg, 14 days
  Yeast count: 2.5 log cfu/g
Yeast; Example 19, bath gel, 0.2 g of LAE/kg, 0 days
  Yeast count: 4.5 log cfu/g
Yeast; Example 19, bath gel, 0.2 g of LAE/kg, 7 days
  Yeast count: 3.5 log cfu/g
Yeast; Example 19, bath gel, 0.2 g of LAE/kg, 14 days
  Yeast count: 2.3 log cfu/g
Aerobic total count [3]; day 0, mean of three samples
  aerobic total count, mean: 2.0 log cfu/g
Aerobic total count [3]; day 15, mean of three samples
  aerobic total count, mean: 2.0 log cfu/g
Aerobic total count [3]; day 30, mean of three samples
  aerobic total count, mean: 2.4 log cfu/g
Aerobic total count [3]; day 45, mean of three samples
  aerobic total count, mean: 2.8 log cfu/g
Aerobic total count [3]; day 60, mean of three samples
  aerobic total count, mean: 3.4 log cfu/g
Aerobic total count [3]; day 90, mean of three samples
  aerobic total count, mean: 4.2 log cfu/g
